# Columns and labels:
# [1] = target: T1, Lysine-specific histone demethylase 2 (Homo sapiens, UniProt Q8NB78); assay: Inhibition of N-terminal GST-tagged recombinant full length human LSD2 expressed in Baculovirus using Bio- H3K4me2 (1 to 24 residues) as substrate incubated for 1 hr by TR-FRET assay
# T1 sequence (Q8NB78 whole entry): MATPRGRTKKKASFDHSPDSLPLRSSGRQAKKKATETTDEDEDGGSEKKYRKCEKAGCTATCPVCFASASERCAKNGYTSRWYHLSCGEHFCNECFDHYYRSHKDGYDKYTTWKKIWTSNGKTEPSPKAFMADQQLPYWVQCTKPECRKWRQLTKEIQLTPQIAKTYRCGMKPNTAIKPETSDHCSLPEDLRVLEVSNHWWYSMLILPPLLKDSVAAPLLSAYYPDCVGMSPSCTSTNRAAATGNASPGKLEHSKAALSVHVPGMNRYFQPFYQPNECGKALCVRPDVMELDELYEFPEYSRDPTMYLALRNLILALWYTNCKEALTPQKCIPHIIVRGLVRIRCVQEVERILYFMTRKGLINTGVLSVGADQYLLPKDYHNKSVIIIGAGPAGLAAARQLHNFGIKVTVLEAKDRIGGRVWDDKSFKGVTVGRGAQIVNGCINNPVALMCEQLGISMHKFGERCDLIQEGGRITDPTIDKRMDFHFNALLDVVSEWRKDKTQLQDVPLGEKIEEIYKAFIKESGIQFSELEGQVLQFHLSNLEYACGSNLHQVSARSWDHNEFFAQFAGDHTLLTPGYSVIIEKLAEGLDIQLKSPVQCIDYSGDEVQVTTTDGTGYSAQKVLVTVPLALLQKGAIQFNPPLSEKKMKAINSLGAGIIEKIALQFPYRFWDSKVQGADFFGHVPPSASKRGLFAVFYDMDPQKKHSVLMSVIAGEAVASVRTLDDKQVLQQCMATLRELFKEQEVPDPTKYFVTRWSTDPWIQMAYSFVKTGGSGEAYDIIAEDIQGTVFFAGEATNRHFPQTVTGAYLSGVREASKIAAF
# Cytochrome P450 1A2 = target: T2, Cytochrome P450 1A2 (Homo sapiens, UniProt P05177); assay: Inhibition of CYP1A2 in human liver microsomes; assay type: ADME, Microsome
# T2 sequence (P05177 whole entry): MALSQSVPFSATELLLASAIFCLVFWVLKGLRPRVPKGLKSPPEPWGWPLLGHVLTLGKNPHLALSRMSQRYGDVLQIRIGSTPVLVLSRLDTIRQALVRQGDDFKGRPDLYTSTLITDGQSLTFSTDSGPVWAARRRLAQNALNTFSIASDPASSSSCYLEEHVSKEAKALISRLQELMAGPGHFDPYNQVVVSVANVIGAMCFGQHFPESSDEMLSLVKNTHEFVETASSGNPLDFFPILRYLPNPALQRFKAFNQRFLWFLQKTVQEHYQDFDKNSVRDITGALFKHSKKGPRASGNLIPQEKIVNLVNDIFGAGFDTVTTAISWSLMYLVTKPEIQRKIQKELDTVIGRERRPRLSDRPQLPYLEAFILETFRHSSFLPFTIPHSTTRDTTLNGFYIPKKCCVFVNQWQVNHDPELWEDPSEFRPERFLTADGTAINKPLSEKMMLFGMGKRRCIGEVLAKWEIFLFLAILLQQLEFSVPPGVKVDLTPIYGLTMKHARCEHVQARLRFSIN
# Cytochrome P450 2C9 = Cytochrome P450 2C9 (Homo sapiens, UniProt P11712); assay: Inhibition of CYP2C9 in human liver microsomes; assay type: ADME, Microsome
# Cytochrome P450 2C19 = Cytochrome P450 2C19 (Homo sapiens, UniProt P33261); assay: Inhibition of CYP2C19 in human liver microsomes; assay type: ADME, Microsome
# Cytochrome P450 2D6 = Cytochrome P450 2D6 (Homo sapiens, UniProt P10635); assay: Inhibition of CYP2D6 in human liver microsomes; assay type: ADME, Microsome
# Cytochrome P450 3A4 = Cytochrome P450 3A4 (Homo sapiens, UniProt P08684); assay: Inhibition of CYP3A4 in human liver microsomes; assay type: ADME, Microsome
# [2] = target: T3, Amine oxidase [flavin-containing] A (Homo sapiens, UniProt P21397); assay: biochemical
# T3 sequence (P21397 whole entry): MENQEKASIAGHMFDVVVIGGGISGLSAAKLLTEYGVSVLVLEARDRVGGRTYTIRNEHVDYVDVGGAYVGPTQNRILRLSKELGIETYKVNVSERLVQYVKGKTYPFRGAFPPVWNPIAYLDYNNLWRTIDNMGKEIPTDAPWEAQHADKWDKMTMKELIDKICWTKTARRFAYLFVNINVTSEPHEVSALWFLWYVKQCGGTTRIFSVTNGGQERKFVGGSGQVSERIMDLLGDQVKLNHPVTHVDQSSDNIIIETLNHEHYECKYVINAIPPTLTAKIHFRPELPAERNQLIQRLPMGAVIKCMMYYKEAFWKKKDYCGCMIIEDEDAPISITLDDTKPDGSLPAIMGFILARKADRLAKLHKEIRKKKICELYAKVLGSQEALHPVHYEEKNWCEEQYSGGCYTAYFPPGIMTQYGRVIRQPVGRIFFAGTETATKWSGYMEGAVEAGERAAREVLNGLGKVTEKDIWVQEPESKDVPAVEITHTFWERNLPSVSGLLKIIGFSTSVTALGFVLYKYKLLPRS
# Description: Inhibition of human recombinant MAO-A expressed in baculovirus infected BTI cells by luminescence assay
# [3] = target: T4, Amine oxidase [flavin-containing] B (Homo sapiens, UniProt P27338); assay: biochemical
# T4 sequence (P27338 whole entry): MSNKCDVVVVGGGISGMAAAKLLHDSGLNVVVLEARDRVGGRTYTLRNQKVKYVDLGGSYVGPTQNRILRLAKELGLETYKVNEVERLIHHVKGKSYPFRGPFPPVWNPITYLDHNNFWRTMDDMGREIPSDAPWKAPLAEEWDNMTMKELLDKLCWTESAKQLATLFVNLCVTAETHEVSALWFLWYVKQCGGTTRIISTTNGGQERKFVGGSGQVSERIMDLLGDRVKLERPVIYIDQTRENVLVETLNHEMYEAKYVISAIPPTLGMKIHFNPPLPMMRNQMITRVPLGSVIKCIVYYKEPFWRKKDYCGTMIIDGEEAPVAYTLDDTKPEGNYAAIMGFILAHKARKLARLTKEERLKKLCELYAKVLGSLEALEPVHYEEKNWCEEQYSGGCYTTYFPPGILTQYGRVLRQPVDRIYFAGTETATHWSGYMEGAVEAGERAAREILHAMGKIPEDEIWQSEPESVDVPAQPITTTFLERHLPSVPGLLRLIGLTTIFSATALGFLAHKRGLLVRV
# Description: Inhibition of human recombinant MAO-B expressed in baculovirus infected BTI cells by luminescence assay
# MV4-11 [4] = assay: Antitumor activity against human MV4-11 cells xenografted in Nu/Nu female mouse model assessed as reduction in tumor volume at 20 mg/kg, sc measured immediately (reference value: 131+/-53 mm3); assay type: functional
# MV4-11 [5] = assay: Antitumor activity against human MV4-11 cells xenografted in Nu/Nu female mouse model assessed as reduction in tumor volume at 20 mg/kg, sc administered 5 days per week and measured on day 17 (reference value: 1187+/-508 mm3); assay type: functional; settings: time 17 day
# MV4-11 [6] = assay: Antitumor activity against human MV4-11 cells xenografted in Nu/Nu female mouse model assessed as relative tumor volume at 20 mg/kg, sc administered 5 days per week and measured on day 17 (reference value: 9.52+/-4.19); assay type: functional; settings: time 17 day
# MV4-11 [7] = assay: Antitumor activity against human MV4-11 cells xenografted in Nu/Nu female mouse model assessed as relative tumor growth rate at 20 mg/kg, sc administered 5 days per week and measured on day 17 relative to control; assay type: functional; settings: time 17 day
# MV4-11 [8] = assay: Antitumor activity against human MV4-11 cells xenografted in Nu/Nu female mouse model assessed as tumor growth inhibition at 20 mg/kg, sc administered 5 days per week and measured on day 17 relative to control; assay type: functional; settings: MV4-11, 408 h, time 17 day, read-out: TGI
# Kasumi 1 = assay: Antiproliferative activity against human Kasumi 1 cells assessed as inhibition of cell growth incubated for 240 hrs by MTS assay; assay type: functional, cell-based; settings: Kasumi 1, 240 h
# NCI-H526 = assay: Antiproliferative activity against human NCI-H526 cells assessed as inhibition of cell growth incubated for 240 hrs by MTS assay; assay type: functional, cell-based; settings: NCI-H526, 240 h
# [9] = Upregulation of CD86 mRNA expression level in human MV4-11 cells measured after 24 hrs by RT-qPCR analysis; assay type: functional, cell-based; settings: MV4-11, 24 h
# MV4-11 [10] = assay: Antitumor activity against human MV4-11 cells xenografted in Nu/Nu female mouse model assessed as reduction in tumor volume at 20 mg/kg, po qd measured immediately (reference value: 131+/-53 mm3); assay type: functional
# MV4-11 [11] = assay: Antitumor activity against human MV4-11 cells xenografted in Nu/Nu female mouse model assessed as reduction in tumor volume at 20 mg/kg, po qd and measured on day 17 (reference value: 1187+/-508 mm3); assay type: functional; settings: time 17 day
# MV4-11 [12] = assay: Antitumor activity against human MV4-11 cells xenografted in Nu/Nu female mouse model assessed as relative tumor volume at 20 mg/kg, po qd and measured on day 17 (reference value: 9.52+/-4.19); assay type: functional; settings: time 17 day
# MV4-11 [13] = assay: Antitumor activity against human MV4-11 cells xenografted in Nu/Nu female mouse model assessed as relative tumor growth rate at 20 mg/kg, po qd and measured on day 17 relative to control; assay type: functional; settings: time 17 day
# MV4-11 [14] = assay: Antitumor activity against human MV4-11 cells xenografted in Nu/Nu female mouse model assessed as tumor growth inhibition at 20 mg/kg, po qd and measured on day 17 relative to control; assay type: functional; settings: MV4-11, 408 h, time 17 day, read-out: TGI
# Cytochrome P450 2C9, sequence (P11712 whole entry): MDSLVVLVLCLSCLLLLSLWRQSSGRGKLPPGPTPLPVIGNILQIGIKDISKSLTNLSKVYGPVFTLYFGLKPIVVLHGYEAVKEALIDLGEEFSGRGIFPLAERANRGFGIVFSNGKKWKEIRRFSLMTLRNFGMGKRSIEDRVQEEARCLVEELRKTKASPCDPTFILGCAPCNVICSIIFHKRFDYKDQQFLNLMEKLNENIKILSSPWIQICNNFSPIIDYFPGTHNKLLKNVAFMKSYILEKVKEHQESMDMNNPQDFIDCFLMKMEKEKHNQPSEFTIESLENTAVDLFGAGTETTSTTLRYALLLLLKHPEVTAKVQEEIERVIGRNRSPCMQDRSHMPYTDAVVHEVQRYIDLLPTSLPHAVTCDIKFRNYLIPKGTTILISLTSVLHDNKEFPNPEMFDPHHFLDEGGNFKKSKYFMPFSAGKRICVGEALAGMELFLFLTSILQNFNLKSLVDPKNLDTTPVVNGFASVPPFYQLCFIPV
# Cytochrome P450 3A4, sequence (P08684 whole entry): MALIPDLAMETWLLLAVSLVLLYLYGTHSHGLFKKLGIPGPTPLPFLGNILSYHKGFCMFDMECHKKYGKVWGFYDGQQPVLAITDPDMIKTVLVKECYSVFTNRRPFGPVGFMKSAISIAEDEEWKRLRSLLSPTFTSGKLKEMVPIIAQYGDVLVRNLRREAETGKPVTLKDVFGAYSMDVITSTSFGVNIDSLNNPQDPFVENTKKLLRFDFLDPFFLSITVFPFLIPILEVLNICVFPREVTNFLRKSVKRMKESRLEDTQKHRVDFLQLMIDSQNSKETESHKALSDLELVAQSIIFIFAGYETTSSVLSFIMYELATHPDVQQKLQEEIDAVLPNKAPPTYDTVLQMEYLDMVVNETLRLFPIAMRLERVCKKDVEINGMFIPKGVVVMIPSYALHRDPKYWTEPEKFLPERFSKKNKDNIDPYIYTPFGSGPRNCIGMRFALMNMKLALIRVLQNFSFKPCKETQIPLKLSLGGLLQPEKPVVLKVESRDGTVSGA
# Cytochrome P450 2D6, sequence (P10635 whole entry): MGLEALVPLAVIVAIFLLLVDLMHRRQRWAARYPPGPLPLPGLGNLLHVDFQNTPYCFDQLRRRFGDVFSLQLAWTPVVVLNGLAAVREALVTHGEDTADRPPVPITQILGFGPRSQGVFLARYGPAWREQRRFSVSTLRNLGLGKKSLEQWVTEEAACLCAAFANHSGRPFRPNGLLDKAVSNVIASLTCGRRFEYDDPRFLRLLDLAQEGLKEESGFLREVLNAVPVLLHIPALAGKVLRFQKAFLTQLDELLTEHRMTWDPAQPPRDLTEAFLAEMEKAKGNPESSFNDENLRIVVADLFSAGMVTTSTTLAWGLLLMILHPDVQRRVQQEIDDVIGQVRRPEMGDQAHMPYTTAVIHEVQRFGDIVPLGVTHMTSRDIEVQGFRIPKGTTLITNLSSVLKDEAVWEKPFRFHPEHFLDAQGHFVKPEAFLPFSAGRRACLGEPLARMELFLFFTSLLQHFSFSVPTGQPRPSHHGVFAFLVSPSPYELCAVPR
# Cytochrome P450 2C19, sequence (P33261 whole entry): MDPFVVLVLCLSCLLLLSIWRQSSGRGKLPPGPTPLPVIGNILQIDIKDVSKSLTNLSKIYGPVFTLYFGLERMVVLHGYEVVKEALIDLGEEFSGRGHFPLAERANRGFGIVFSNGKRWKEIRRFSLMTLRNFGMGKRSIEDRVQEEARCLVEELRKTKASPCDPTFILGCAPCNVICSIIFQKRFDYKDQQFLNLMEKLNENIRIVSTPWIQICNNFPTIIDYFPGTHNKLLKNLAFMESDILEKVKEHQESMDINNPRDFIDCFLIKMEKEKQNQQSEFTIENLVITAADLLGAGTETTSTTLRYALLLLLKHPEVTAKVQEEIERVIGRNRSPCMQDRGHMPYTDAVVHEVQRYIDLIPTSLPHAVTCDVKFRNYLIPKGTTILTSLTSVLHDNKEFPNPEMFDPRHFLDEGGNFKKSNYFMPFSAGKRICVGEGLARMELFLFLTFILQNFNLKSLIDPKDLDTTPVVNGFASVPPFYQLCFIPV
Structure (SMILES),IC50 [1] [µM],IC50 (Cytochrome P450 1A2) [µM],IC50 (Cytochrome P450 2C9) [µM],IC50 (Cytochrome P450 2C19) [µM],IC50 (Cytochrome P450 2D6) [µM],IC50 (Cytochrome P450 3A4; read-out: IC50) [µM],IC50 [2] [µM],IC50 [3] [µM],also measured
Cc1ccc(-c2ncc3c(cc(CN4CC[C@H](N)C4)n3C(C)C)c2-c2ccc(C#N)c(F)c2)cc1C,> 20,> 50,28.8,24.8,43.1,9.46,> 20,> 20,–
Cc1ccc(-c2ncc3c(cc(CN4CC[C@H](N)C4)n3CC(F)F)c2-c2ccc(C#N)c(F)c2)cc1C,> 20,> 50,45.5,25.8,45.7,20.9,> 20,> 20,–
Cc1cc(C)c(-c2ncc3c(cc(CN4CC[C@H](N)C4)n3C(C)C)c2-c2ccc(C#N)c(F)c2)cc1C,> 20,> 50,32.9,–,46.7,–,> 20,> 20,IC50 (Cytochrome P450 3A4): 4.53 µM
Cc1cc(-c2ncc3c(cc(CN4CC[C@H](N)C4)n3C(C)C)c2-c2ccc(C#N)c(F)c2)cc(C)c1C,> 20,> 50,30,17.9,> 50,4.96,> 20,> 20,–
Cc1cc(C)c(-c2ncc3c(cc(CN4CC[C@H](N)C4)n3CC(F)(F)F)c2-c2ccc(C#N)c(F)c2)cc1C,> 20,> 50,27.3,22,20.4,7.74,> 20,> 20,–
CCn1c(CN2CC[C@H](N)C2)cc2c(-c3ccc(C#N)c(F)c3)c(-c3cc(C)c(C)c(C)c3)ncc21,> 20,–,–,–,–,–,> 20,> 20,–
Cc1cc(C)c(-c2ncc3c(cc(CN4CC[C@H](N)C4)n3CC(F)F)c2-c2ccc(C#N)c(F)c2)cc1C,> 20,–,–,–,–,–,> 20,> 20,–
Cc1cc(C)c(-c2ncc3c(cc(CN4CC[C@H](N)C4)n3C)c2-c2ccc(C#N)c(F)c2)cc1C,> 20,–,–,–,–,–,> 20,> 20,–
Nc1ccn([C@@H]2O[C@H](CO)[C@@H](O)[C@@H]2O)c(=O)n1 [CYTARABINE],–,–,–,–,–,–,–,–,Activity (MV4-11 [4]): 131 mm3; Activity (MV4-11 [5]): 741 mm3; Activity (MV4-11 [6]): 5.65; Activity (MV4-11 [7]): 59.36%; inhibition in vivo at 20 mg/kg (MV4-11 [8]): 54.7%
COc1ccc(-c2c(-c3ccc(C#N)c(F)c3)nc(N3CCC(N)CC3)n(C)c2=O)cc1F [PULRODEMSTAT],–,–,–,–,–,–,–,–,IC50 (Kasumi 1): 0.003 µM; IC50 (NCI-H526): 0.01 µM; EC50 [9]: 0.032 µM; Activity (MV4-11 [10]): 132 mm3; Activity (MV4-11 [11]): 554 mm3; Activity (MV4-11 [12]): 3.75; Activity (MV4-11 [13]): 39.33%; inhibition in vivo at 20 mg/kg (MV4-11 [14]): 64.2%

# Source: ChEMBL document CHEMBL6074676, “Optimization and Biological Evaluation of Novel 1H-Pyrrolo[2,3-c]pyridin Derivatives as Potent and Reversible Lysine Specific Demethylase 1 Inhibitors for the Treatment of Acute Myelogenous Leukemia” (J Med Chem, 2024)
